Test results as given in patent publication US8471005B2 (Cephalon, Inc., priority 2008, dated 2013).
Like-named read-outs stand apart in the source and are kept apart here.

Experiments:
JAK2 = target: T1, JAK2 (Homo sapiens, UniProt O60674); experiment: Recombinant Human JAK2 Kinase Assay (TRF); type: biochemical; settings: read-out: JAK2 Potency
T1 construct: host or cells: baculovirus expression system
Procedure, shortened: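 Baculovirus-expressed JAK2 (15 ng/ml) phosphorylated a biotinylated 15-mer peptide captured on Neutravidin, in 20 mM HEPES pH 7.2, 0.2 μM ATP, 1 mM MnCl2, 0.1% BSA, 2.5% DMSO final, 20 min at room temperature. Phosphoproduct detected by time-resolved fluorescence with Eu-N1-labelled PY100 antibody.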

ALK = target: T2, ALK (Homo sapiens, UniProt Q9UM73); experiment: ALK Kinase Assay (ELISA/TRF, PLC-γ substrate); type: biochemical; settings: read-out: ALK Potency
T2 construct: host or cells: baculovirus expression system
T2 sequence (Q9UM73 19-1620): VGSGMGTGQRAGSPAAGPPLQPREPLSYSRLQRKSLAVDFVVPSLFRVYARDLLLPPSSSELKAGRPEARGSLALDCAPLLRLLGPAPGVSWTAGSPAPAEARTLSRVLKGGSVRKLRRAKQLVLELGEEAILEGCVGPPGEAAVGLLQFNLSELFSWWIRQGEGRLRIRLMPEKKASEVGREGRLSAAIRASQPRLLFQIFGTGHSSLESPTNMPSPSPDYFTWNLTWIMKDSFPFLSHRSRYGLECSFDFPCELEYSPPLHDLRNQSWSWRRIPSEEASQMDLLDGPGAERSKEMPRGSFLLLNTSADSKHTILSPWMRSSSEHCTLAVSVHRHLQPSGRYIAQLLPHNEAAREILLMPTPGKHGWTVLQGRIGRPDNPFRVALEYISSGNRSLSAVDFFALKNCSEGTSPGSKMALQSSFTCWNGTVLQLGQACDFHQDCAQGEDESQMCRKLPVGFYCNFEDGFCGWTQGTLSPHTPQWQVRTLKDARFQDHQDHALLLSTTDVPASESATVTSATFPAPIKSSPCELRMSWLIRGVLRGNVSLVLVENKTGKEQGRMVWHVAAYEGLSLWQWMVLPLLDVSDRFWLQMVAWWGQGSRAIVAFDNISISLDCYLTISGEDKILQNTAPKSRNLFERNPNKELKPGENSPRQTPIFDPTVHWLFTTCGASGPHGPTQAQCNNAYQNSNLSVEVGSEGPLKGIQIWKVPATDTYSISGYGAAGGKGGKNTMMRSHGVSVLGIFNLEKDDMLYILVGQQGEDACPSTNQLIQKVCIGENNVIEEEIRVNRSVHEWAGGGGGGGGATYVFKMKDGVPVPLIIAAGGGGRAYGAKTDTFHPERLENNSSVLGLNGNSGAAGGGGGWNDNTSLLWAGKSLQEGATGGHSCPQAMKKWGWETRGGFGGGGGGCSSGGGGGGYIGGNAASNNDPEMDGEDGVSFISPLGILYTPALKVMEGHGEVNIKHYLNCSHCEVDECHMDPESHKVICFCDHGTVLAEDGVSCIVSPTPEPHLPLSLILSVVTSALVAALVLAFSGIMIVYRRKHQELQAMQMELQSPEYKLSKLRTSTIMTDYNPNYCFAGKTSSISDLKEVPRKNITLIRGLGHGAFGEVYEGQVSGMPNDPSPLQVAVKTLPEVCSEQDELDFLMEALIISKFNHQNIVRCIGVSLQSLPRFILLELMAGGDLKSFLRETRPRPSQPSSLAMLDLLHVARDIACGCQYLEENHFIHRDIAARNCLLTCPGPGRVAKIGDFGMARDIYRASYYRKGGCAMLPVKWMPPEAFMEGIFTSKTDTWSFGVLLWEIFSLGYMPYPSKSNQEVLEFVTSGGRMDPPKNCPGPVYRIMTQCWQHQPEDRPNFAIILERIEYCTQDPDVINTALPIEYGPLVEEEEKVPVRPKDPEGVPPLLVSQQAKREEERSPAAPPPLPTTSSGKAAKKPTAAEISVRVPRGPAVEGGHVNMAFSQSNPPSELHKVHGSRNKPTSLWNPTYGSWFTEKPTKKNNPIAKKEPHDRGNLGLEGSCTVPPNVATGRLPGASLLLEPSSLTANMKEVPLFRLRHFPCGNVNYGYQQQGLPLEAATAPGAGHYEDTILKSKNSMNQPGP
Procedure, shortened: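 IC50 values derive from percent inhibition plotted against log10 compound concentration and fitted to a variable-slope sigmoidal equation. The underlying reaction used 30 ng/ml ALK acting on immobilized PLC-γ (10 μg/mL in TBS) at 37° C for 15 minutes, read with Eu-N1 PT66 antibody.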

[1] = JAK2 kinase inhibition, 0.2 μM ATP
[2] = ALK kinase inhibition, 1 μM ATP

T1 sequence (O60674 whole entry): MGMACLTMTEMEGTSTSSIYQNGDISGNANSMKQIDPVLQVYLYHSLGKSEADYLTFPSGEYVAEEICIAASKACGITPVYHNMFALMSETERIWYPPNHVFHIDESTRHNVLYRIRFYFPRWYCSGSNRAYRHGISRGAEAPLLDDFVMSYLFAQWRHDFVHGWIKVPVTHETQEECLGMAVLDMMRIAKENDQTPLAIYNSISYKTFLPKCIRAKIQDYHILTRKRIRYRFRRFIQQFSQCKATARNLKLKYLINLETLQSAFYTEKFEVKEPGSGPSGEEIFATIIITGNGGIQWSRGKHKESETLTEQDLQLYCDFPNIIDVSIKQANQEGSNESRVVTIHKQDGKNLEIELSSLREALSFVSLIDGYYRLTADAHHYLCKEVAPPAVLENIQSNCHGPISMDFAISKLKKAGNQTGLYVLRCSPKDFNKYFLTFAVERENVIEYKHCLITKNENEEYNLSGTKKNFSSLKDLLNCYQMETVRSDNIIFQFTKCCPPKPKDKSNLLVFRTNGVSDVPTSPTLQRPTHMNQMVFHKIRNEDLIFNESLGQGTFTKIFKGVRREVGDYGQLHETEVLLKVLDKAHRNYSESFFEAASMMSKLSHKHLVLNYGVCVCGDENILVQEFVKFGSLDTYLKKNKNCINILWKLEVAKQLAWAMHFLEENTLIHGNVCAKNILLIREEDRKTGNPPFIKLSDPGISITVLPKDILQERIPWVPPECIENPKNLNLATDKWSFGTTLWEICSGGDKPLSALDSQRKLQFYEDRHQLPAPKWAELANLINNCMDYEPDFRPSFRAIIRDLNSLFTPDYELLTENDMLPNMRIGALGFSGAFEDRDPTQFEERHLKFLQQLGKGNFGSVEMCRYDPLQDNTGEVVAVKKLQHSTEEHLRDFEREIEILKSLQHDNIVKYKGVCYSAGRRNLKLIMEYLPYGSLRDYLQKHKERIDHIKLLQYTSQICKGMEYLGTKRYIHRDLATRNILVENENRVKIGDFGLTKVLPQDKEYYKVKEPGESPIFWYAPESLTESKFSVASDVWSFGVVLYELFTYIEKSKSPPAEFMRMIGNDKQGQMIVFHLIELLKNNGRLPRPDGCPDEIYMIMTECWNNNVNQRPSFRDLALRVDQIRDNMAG

| Compound | IC50 (JAK2; [1]) | IC50 (ALK; [2]) | IC50 (JAK2; JAK2 Kinase Inhibition) | IC50 (ALK; ALK Kinase Inhibition) |
| --- | --- | --- | --- | --- |
| CN(c1ccccc1-c1ccc2cnc(Nc3nccs3)nn12)S(C)(=O)=O [Example 1362, N-Methyl-N-{2-[2-(thiazol-2-ylamino)-pyrrolo[2,1-f][1,2,4]triazin-7-yl]-phenyl}-methanesulfonamide] | 100 to 1000 nM | 1000 to 10000 nM |  |  |
| COc1ccc(-c2ccc3cnc(Nc4ccc(C(=O)N5CCOCC5)cc4)nn23)cn1 [Example 1406, {4-[7-(6-Methoxy-pyridin-3-yl)-pyrrolo[2,1-f][1,2,4]triazin-2-ylamino]-phenyl}-morpholin-4-yl-methanone] |  |  | < 100 nM | > 10000 nM |
| O=C(NCCCN1CCOCC1)c1ccc(-c2ccc3cnc(Nc4ccc(N5CCOCC5)cc4)nn23)cc1 [Example 57, 4-[2-(4-Morpholin-4-yl-phenylamino)-pyrrolo[2,1-f][1,2,4]triazin-7-yl]-N-(3-morpholin-4-yl-propyl)-benzamide] |  |  | < 100 nM | 1000 to 10000 nM |
| COCCN1CCc2ccc(Nc3ncc4ccc(-c5ccccc5S(=O)(=O)N(C)C)n4n3)cc2CC1 [Example 31, 2-{2-[3-(2-Methoxy-ethyl)-2,3,4,5-tetrahydro-1H-benzo[d]azepin-7-ylamino]-pyrrolo[2,1-f][1,2,4]triazin-7-yl}-N,N-dimethyl-benzenesulfonamide] |  |  | < 100 nM | 100 to 1000 nM |
| COc1ccc2c(c1)cc1cnc(Nc3ccc(N4CCOCC4)cc3)nn12 [Example 268, (7-Methoxy-[1,2,4]triazino[1,6-a]indol-2-yl)-(4-morpholin-4-yl-phenyl)-amine] |  |  | < 100 nM | > 10000 nM |
| CS(=O)(=O)c1cccc(-c2ccc3cnc(Nc4cccc(C5(O)CCNCC5)c4)nn23)c1 [Example 1552, 4-{3-[7-(3-Methanesulfonyl-phenyl)-pyrrolo[2,1-f][1,2,4]triazin-2-ylamino]-phenyl}-piperidin-4-ol] |  |  | < 100 nM | 100 to 1000 nM |
| COc1cc(C2CCN(C[C@@H](C)O)CC2)ccc1Nc1ncc2ccc(-c3ccccc3OC)n2n1 [Example 787, (R)-1-(4-{3-Methoxy-4-[7-(2-methoxy-phenyl)-pyrrolo[2,1-f][1,2,4]triazin-2-ylamino]-phenyl}-piperidin-1-yl)-propan-2-ol] | 100 to 1000 nM | < 100 nM |  |  |
| O=S(=O)(CC1CC1)c1cccc(-c2ccc3cnc(Nc4ccc5nc(C(F)(F)F)[nH]c5c4)nn23)c1 [Example 1318, [7-(3-Cyclopropylmethanesulfonyl-phenyl)-pyrrolo[2,1-f][1,2,4]triazin-2-yl]-(2-trifluoromethyl-3H-benzimidazol-5-yl)-amine] | < 100 nM | > 10000 nM |  |  |
| CC(=O)N1CCOc2ccc(Nc3ncc4ccc(-c5ccccc5N(C)S(C)(=O)=O)n4n3)cc21 [Example 1374, N-{2-[2-(4-Acetyl-3,4-dihydro-2H-1,4-benzoxazin-6-ylamino)-pyrrolo[2,1-f][1,2,4]triazin-7-yl]-phenyl}-N-methyl-methanesulfonamide] |  |  | < 100 nM | 100 to 1000 nM |
| CN(c1ccccc1-c1ccc2cnc(Nc3cnn(C4CCNCC4)c3)nn12)S(C)(=O)=O [Example 717, N-Methyl-N-{2-[2-(1-piperidin-4-yl-1H-pyrazol-4-ylamino)-pyrrolo[2,1-f][1,2,4]triazin-7-yl]-phenyl}-methanesulfonamide] | < 100 nM | 100 to 1000 nM |  |  |
| Cn1ncc2cc(Nc3ncc4ccc(-c5cccc(S(=O)(=O)CC6CC6)c5)n4n3)ccc21 [Example 1322, [7-(3-Cyclopropylmethanesulfonyl-phenyl)-pyrrolo[2,1-f][1,2,4]triazin-2-yl]-(1-methyl-1H-indazol-5-yl)-amine] | < 100 nM | 1000 to 10000 nM |  |  |
| CN1CCC(c2ccc(Nc3ncc4ccc(-c5cccc(S(=O)(=O)NCc6ccccc6)c5)n4n3)cc2)CC1 [Example 904, N-Benzyl-3-{2-[4-(1-methyl-piperidin-4-yl)-phenylamino]-pyrrolo[2,1-f][1,2,4]triazin-7-yl}-benzenesulfonamide] | < 100 nM | 100 to 1000 nM |  |  |
| COc1cc2c(cc1Nc1ncc3ccc(-c4ccccc4OC)n3n1)CN(C1COC1)C2 [Example 850, (6-Methoxy-2-oxetan-3-yl-2,3-dihydro-1H-isoindol-5-yl)-[7-(2-methoxy-phenyl)-pyrrolo[2,1-f][1,2,4]triazin-2-yl]-amine] | < 100 nM | < 100 nM |  |  |
| COc1ccccc1-c1cc(O)c2cnc(Nc3ccc(C4CCN(CC(N)=O)CC4)cc3)nn12 [Example 1260, 2-(4-{4-[5-Hydroxy-7-(2-methoxy-phenyl)-pyrrolo[2,1-f][1,2,4]triazin-2-ylamino]-phenyl}-piperidin-1-yl)-acetamide] | < 100 nM | 100 to 1000 nM |  |  |
| CC(C)(C)NS(=O)(=O)c1cccc(-c2ccc3cnc(Nc4ccc5nc[nH]c5c4)nn23)c1 [Example 1299, 3-[2-(3H-Benzimidazol-5-ylamino)-pyrrolo[2,1-f][1,2,4]triazin-7-yl]-N-tert-butyl-benzenesulfonamide] | < 100 nM | 100 to 1000 nM |  |  |
| COc1cc(N2CCC[C@H](C(=O)N3CCN(C)CC3)C2)ccc1Nc1ncc2ccc(-c3ccccc3OC)n2n1 [Example 461, ((S)-1-{3-Methoxy-4-[7-(2-methoxy-phenyl)-pyrrolo[2,1-f][1,2,4]triazin-2-ylamino]-phenyl}-piperidin-3-yl)-(4-methyl-piperazin-1-yl)-methanone] |  |  | 100 to 1000 nM | < 100 nM |
| COc1cc([C@@]2(O)CCN(CCF)C[C@@H]2O)ccc1Nc1ncc2ccc(-c3ccccc3N(C)S(C)(=O)=O)n2n1 (racemic) [Example 845, (±)-N-[2-(2-{4-[(3S,4S)-1-(2-Fluoro-ethyl)-3,4-dihydroxy-piperidin-4-yl]-2-methoxy-phenylamino}-pyrrolo[2,1-f][1,2,4]triazin-7-yl)-phenyl]-N-methyl-methanesulfonamide] | 100 to 1000 nM | < 100 nM |  |  |
| CN1CCN(c2ccc(Nc3ncc4c(-c5ccccc5Cl)ccn4n3)cc2)CC1 [Example 40, [5-(2-Chloro-phenyl)-pyrrolo[2,1-f][1,2,4]triazin-2-yl]-[4-(4-methyl-piperazin-1-yl)-phenyl]-amine] |  |  | 1000 to 10000 nM | > 10000 nM |
| COc1cc(CN2CCN(C(=O)CN)CC2)ccc1Nc1ncc2ccc(-c3ccccc3N(C)S(C)(=O)=O)n2n1 [Example 1241, N-[2-(2-{4-[4-(2-Amino-acetyl)-piperazin-1-ylmethyl]-2-methoxy-phenylamino}-pyrrolo[2,1-f][1,2,4]triazin-7-yl)-phenyl]-N-methyl-methanesulfonamide] | 1000 to 10000 nM | < 100 nM |  |  |

Second part, the compound after the results:

| IC50 (JAK2; [1]) | IC50 (ALK; [2]) | IC50 (JAK2; JAK2 Kinase Inhibition) | IC50 (ALK; ALK Kinase Inhibition) | Compound |
| --- | --- | --- | --- | --- |
|  |  | < 100 nM | < 100 nM | COc1ccccc1-c1ccc2cnc(Nc3ccc(OCCN4CCN(C)CC4)cc3)nn12 [Example 94, [7-(2-Methoxy-phenyl)-pyrrolo[2,1-f][1,2,4]triazin-2-yl]-{4-[2-(4-methyl-piperazin-1-yl)-ethoxy]-phenyl}-amine] |
| > 10000 nM | 1000 to 10000 nM |  |  | COc1ccc(C(=O)N2CCN(C)CC2)cc1Nc1ncc2ccc(-c3ccccc3N(C)S(C)(=O)=O)n2n1 [Example 496, N-(2-{2-[2-Methoxy-5-(4-methyl-piperazine-1-carbonyl)-phenylamino]-pyrrolo[2,1-f][1,2,4]triazin-7-yl}-phenyl)-N-methyl-methanesulfonamide] |
|  |  | < 100 nM | 1000 to 10000 nM | O=S1(=O)CCCN1c1cccc(-c2ccc3cnc(Nc4ccc5nc[nH]c5c4)nn23)c1 [Example 1511, N-(1H-Benzimidazol-6-yl)-7-[3-(1,1-dioxido-1,2-thiazolidin-2-yl)phenyl]pyrrolo[2,14][1,2,4]triazin-2-amine] |
|  |  | < 100 nM | < 100 nM | COc1cc(Nc2ncc3ccc(-c4cccc(Cl)c4)n3n2)ccc1N1CCN(C)CC1 [Example 64, [7-(3-Chloro-phenyl)-pyrrolo[2,1-f][1,2,4]triazin-2-yl]-[3-methoxy-4-(4-methyl-piperazin-1-yl)-phenyl]-amine] |
|  |  | < 100 nM | 1000 to 10000 nM | CN1CCN(C(=O)c2cccc(Nc3ncc4ccc(-c5ccc(S(C)(=O)=O)cc5)n4n3)c2)CC1 [Example 342, {3-[7-(4-Methanesulfonyl-phenyl)-pyrrolo[2,1-f][1,2,4]triazin-2-ylamino]-phenyl}-(4-methyl-piperazin-1-yl)-methanone] |
| < 100 nM | 100 to 1000 nM |  |  | CN1CCN(c2ccc(Nc3ncc4ccc(-c5cccc(S(C)(=O)=O)c5)n4n3)cn2)CC1 [Example 1123, [7-(3-Methanesulfonyl-phenyl)-pyrrolo[2,1-f][1,2,4]triazin-2-yl]-[6-(4-methyl-piperazin-1-yl)-pyridin-3-yl]-amine] |
|  |  | < 100 nM | < 100 nM | COc1ccc(Cl)cc1-c1ccc2cnc(Nc3cccc(N4CCN(C[C@H](C)O)CC4)c3)nn12 [Example 211, (S)-1-(4-{3-[7-(5-Chloro-2-methoxy-phenyl)-pyrrolo[2,1-f][1,2,4]triazin-2-ylamino]-phenyl}-piperazin-1-yl)-propan-2-ol] |
| < 100 nM | 1000 to 10000 nM |  |  | COc1ccc(-c2ccc3cnc(Nc4ccc(C5C(=O)N(C)CCN5C)cc4)nn23)cn1 (centres unmarked) [Example 1072, 3-{4-[7-(6-Methoxy-pyridin-3-yl)-pyrrolo[2,1-f][1,2,4]triazin-2-ylamino]-phenyl}-1,4-dimethyl-piperazin-2-one] |
| < 100 nM | 100 to 1000 nM |  |  | COc1ccc(-c2ccc3cnc(Nc4ccc(N5CCN(CCO)CC5)cc4)nn23)cn1 [Example 1104, 2-(4-{4-[7-(6-Methoxy-pyridin-3-yl)-pyrrolo[2,1-f][1,2,4]triazin-2-ylamino]-phenyl}-piperazin-1-yl)-ethanol] |
